Laboratory results: patent publication US20250320228A1, “PYRIDO[3,2-D]PYRIMIDINES AS HPK1 INHIBITORS” (Merck Patent GmbH, priority 2022, published 2025)

Columns and labels:
HPK1 pSLP76 (Ser376) = assay: Cellular assay phospho-SLP-76 (Ser376); assay type: cell-based, human; conditions: SLP76 Ser376 phosphorylation after αCD3/αCD28 stimulation; Jurkat (human) or EL-4 (mouse) cells, table does not say which; read-out: HPK1 pSLP76 IC50
Procedure: Cellular Assay—Phospho-SLP-76 (Ser376).
Inhibition of HPK1 enzymatic activity in cells was determined by detection of SLP76 phosphorylation at Ser376 residue in lysate from Jurkat (human) and EL-4 (mouse) cells. Jurkat and EL-4 cells express both HPK1 and SLP76 naturally. All cells were cultured in RPMI 1640 media containing 10% heat inactivated fetal bovine serum (FBS) and 1× Penicillin-Streptomycin. In either Jurkat or El-4 assay, cells were pre-incubated with test compounds prior to T cell stimulation by respective αCD3/αCD28 Dynabeads™. For detection, plates were read on the Envision and percent inhibition and IC50 were determined by Smart fit in Genedata Analyzer.
For Jurkat cells: 35 μL cell suspension were dispensed at a density of 30,000 cells/well in 384-well plates containing HBSS (Gibco, 14025076)+0.1% BSA). 10-point logarithmic serial dilution of test compounds in DMSO were prepared by a Hamilton automated liquid handling robot and 35 nL was transferred into each well by an Echo liquid handler. After 60 min. pre-incubation, the cells were stimulated by adding 5 μL human T activator αCD3/αCD28 Dynabeads™ (Gibco, 11132D) at 1.2×107 beads/ml for 15 minutes at 37° C. Detection of Ser376 phosphorylation status was accomplished by first adding 10 μL of 5× AlphaLISA lysis buffer (Perkin Elmer, ALSU-PSLP-A500) to each well of the cell plate using a Multidrop Combi (5840300), followed by 20 minutes shaking. 10 μL cell lysate from each treatment were then transferred to a white 384-well plate (Corning 3572) and incubated with AlphaLISA acceptor beads for one hour (AlphaLISA SureFire Ultra p-SLP76 (Ser376), Perkin Elmer, ALSU-PSLP-A500), and donor beads for additional 2 hours at room temperature in the dark. […]

[1] = biological target: full-length human HPK1 (MAP4K1) (Homo sapiens (Human), UniProt Q92918); assay: HPK1 kinase assay (biochemical, ADP-Glo); conditions: GST-HPK1 3.2 nM, 10 μM ATP, MBP substrate, ADP-Glo; read-out: HPK1 enzymatic IC50
Sequence of full-length human HPK1 (MAP4K1) (Q92918 whole entry): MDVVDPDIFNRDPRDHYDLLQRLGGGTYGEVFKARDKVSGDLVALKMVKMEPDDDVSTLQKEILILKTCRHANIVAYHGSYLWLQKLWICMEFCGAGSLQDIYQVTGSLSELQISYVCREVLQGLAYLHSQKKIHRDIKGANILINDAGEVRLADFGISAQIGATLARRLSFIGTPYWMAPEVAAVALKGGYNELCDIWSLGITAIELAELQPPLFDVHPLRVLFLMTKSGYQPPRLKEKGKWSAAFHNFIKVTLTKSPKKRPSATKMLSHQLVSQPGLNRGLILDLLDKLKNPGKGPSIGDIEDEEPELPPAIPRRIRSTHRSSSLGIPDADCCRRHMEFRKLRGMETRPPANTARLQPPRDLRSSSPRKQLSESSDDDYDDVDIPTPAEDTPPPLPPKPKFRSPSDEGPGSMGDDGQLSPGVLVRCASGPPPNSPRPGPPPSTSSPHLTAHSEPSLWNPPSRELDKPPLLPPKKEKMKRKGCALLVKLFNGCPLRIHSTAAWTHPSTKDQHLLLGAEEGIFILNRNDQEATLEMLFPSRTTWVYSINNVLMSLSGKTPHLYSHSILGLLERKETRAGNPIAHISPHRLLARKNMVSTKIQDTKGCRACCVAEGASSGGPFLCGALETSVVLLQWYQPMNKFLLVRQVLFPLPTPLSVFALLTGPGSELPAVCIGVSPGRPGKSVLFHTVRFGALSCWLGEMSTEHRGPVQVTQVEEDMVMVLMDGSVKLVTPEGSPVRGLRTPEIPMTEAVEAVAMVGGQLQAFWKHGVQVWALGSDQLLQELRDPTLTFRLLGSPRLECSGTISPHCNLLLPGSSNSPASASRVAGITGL
Excerpt: HPK1 kinase assay (Biochemical assay).
A recombinant fusion protein consisting of full-length human HPK1 (MAP4K1) with an N-terminal Glutatione S-transferase (GST) tag was produced in insect cells Sf21 using the baculovirus expression system. GST-HPK1 protein was purified from cell lysates by glutathione Sepharose affinity chromatography. The assay is run in three continuous steps: 1) the HPK1 enzymatic kinase reaction, 2) an ATP depletion, and 3) the ADP detection, the steps 2 and 3 are performed with ADP-Glo™ Kinase Assay kit from Promega (V9101). Test compounds were prepared by 10-point serial dilution in dimethyl sulfoxide (DMSO) and 100 nL of each dilution was spotted onto a 384-well Optiplate (Perkin Elmer and Cat #6007299) by Labcyte Echo. 5 μL kinase reaction buffer (0.02% Brij-35, 2 mM DTT, 50 mM HEPES pH 7.5, MgCl2 10 mM, BSA 0.01% and β-glycerophosphate 12.5 mM) containing HPK1 (3.2 nM) enzyme was transferred to each well and incubated for 15 minutes at room temperature at 60% humidity. The enzymatic reaction was started by adding 5 μl of Start-Mix (10 μM ATP and 3.235 μM MBP). After 120 minutes, the reaction was stopped by adding 5 μL of ADP-Glo reagent (Promega, V9101) and incubating for 40 min. in the dark at 23° C. To determine the level of ADP, 10 μl ADP-Glo Detection solution was added and incubated for 1 hour at 23° C. in the dark. The plate was transferred to a Perkin Elmer EnVision (2104 Multilabel Reader) for luminescence detection and percent inhibition activity and IC50 value were determined using Genedata Screener.

| Structure (SMILES) | IC50 (HPK1 pSLP76 (Ser376)) [nM] | IC50 [1] [nM] |
| --- | --- | --- |
| CC(C)(O)COc1ccc(-c2cc(C(N)=O)c3ncnc(N[C@@H]4CNC[C@@H](F)C4)c3n2)c(C#N)c1 [Example 1, 6-(2-cyano-4-(2-hydroxy-2-methylpropoxy)phenyl)-4-(((3S,5S)-5-fluoropiperidin-3-yl)amino)pyrido[3,2-d]pyrimidine-8-carboxamide] | < 500 | < 100 |
| Cc1nn(C)cc1-c1cc(C(N)=O)c2ncnc(N[C@@H]3CNC[C@@H](F)C3)c2n1 [Example 3, 6-(1,3-dimethyl-1H-pyrazol-4-yl)-4-(((3S,5S)-5-fluoropiperidin-3-yl)amino)pyrido[3,2-d]pyrimidine-8-carboxamide] | < 500 | < 100 |
| Cc1cc(-c2cc(C(N)=O)c3ncnc(N[C@@H]4CNC[C@@H](F)C4)c3n2)sn1 [Example 6, 4-{[(3S,5S)-5-fluoropiperidin-3-yl]amino}-6-(3-methyl-1,2-thiazol-5-yl)pyrido[3,2-d]pyrimidine-8-carboxamide] | – | < 100 |
| Cn1cc(-c2cc(C(N)=O)c3ncnc(N[C@@H]4CNC[C@@H](F)C4)c3n2)cc1C#N [Example 7, 6-(5-cyano-1-methyl-1H-pyrrol-3-yl)-4-{[(3S,5S)-5-fluoropiperidin-3-yl]amino}pyrido[3,2-d]pyrimidine-8-carboxamide] | < 500 | < 100 |
| N#Cc1cc(C(F)F)ccc1-c1cc(C(N)=O)c2ncnc(N[C@@H]3CNCC(F)(F)C3)c2n1 [Example 10, (S)-6-(2-cyano-4-(difluoromethyl)phenyl)-4-((5,5-difluoropiperidin-3-yl)amino)pyrido[3,2-d]pyrimidine-8-carboxamide] | – | 100 to 1000 |
| COc1ccc(-c2cc(C(N)=O)c3ncnc(N[C@@H]4CNCC(F)(F)C4)c3n2)cc1 [Example 11, (S)-4-((5,5-difluoropiperidin-3-yl)amino)-6-(4-methoxyphenyl)pyrido[3,2-d]pyrimidine-8-carboxamide] | – | 100 to 1000 |
| N#C[C@H]1COCCN1Cc1ccc(-c2cc(C(N)=O)c3ncnc(N[C@H]4CCCNC4)c3n2)cc1 [Example 14] | > 1000 | – |
| NC(=O)c1cc(-c2ccc(CN3CCOC[C@H]3C(F)(F)F)cc2)nc2c(N[C@H]3CCCNC3)ncnc12 [Example 15] | < 500 | – |
| COCCn1cc(-c2cc(C(N)=O)c3ncnc(N[C@H]4CCCNC4)c3n2)cn1 [Example 19, (S)-6-(1-(2-methoxyethyl)-1H-pyrazol-4-yl)-4-(piperidin-3-ylamino)pyrido[3,2-d]pyrimidine-8-carboxamide] | – | < 100 |
| NC(=O)c1cc(-c2cc(F)c(OCC3(O)CCC3)c(F)c2)nc2c(N[C@H]3CCCNC3)ncnc12 [Example 39, (S)-6-(3,5-difluoro-4-((1-hydroxycyclobutyl)methoxy)phenyl)-4-(piperidin-3-ylamino)pyrido[3,2-d]pyrimidine-8-carboxamide] | < 500 | – |
| NC(=O)c1cc(-c2ccc(CN3CC[C@H](F)C3)cc2)nc2c(N[C@H]3CCCNC3)ncnc12 [Example 60, 6-(4-[[(3S)-3-fluoropyrrolidin-1-yl]methyl]phenyl)-4-[(3S)-piperidin-3-ylamino]pyrido[3,2-d]pyrimidine-8-carboxamide] | – | < 100 |
| CN1CC=C(c2cc(C(N)=O)c3ncnc(N[C@H]4CCCNC4)c3n2)CC1 [Example 73, 6-(1-methyl-1,2,3,6-tetrahydropyridin-4-yl)-4-{[(3S)-piperidin-3-yl]amino}pyrido[3,2-d]pyrimidine-8-carboxamide] | – | > 1000 |

Continued, values first:

| IC50 (HPK1 pSLP76 (Ser376)) [nM] | IC50 [1] [nM] | Structure (SMILES) |
| --- | --- | --- |
| 500 to 1000 | < 100 | C[C@@H](c1ccc(-c2cc(C(N)=O)c3ncnc(N[C@H]4CCCNC4)c3n2)cc1)N1CCOCC1 (single isomer, unassigned) [Example 53] |
| – | 100 to 1000 | NC(=O)c1cc(C=C2CCOC2)nc2c(N[C@H]3CCCNC3)ncnc12 (stereo in doubt) [Example 80, 6-{[(3Z)-oxolan-3-ylidene]methyl}-4-{[(3S)-piperidin-3-yl]amino}pyrido[3,2-d]pyrimidine-8-carboxamide] |
| – | < 100 | N#Cc1c(-c2cc(C(N)=O)c3ncnc(N[C@@H]4CNC[C@@H](F)C4)c3n2)ccc2ncccc12 [Example 2, 6-(5-cyanoquinolin-6-yl)-4-{[(3S,5S)-5-fluoropiperidin-3-yl]amino}pyrido[3,2-d]pyrimidine-8-carboxamide] |
| 500 to 1000 | < 100 | NC(=O)c1cc(-c2cnn(C3CCOCC3)c2)nc2c(N[C@@H]3CNC[C@@H](F)C3)ncnc12 [Example 4, 4-(((3S,5S)-5-fluoropiperidin-3-yl)amino)-6-(1-(tetrahydro-2H-pyran-4-yl)-1H-pyrazol-4-yl)pyrido[3,2-d]pyrimidine-8-carboxamide] |
| < 500 | < 100 | CC(=O)c1ccc(-c2cc(C(N)=O)c3ncnc(N[C@@H]4CNC[C@@H](F)C4)c3n2)s1 [Example 5, 6-(5-acetylthiophen-2-yl)-4-(((3S,5S)-5-fluoropiperidin-3-yl)amino)pyrido[3,2-d]pyrimidine-8-carboxamide] |
| > 1000 | – | NC(=O)c1cc(-c2ccc(CN3CCOCC3)cc2)nc2c(NC34CNCC3C4)ncnc12 (stereo not drawn) [Example 20] |
| – | 100 to 1000 | NC(=O)c1cc(-c2ccc(CN3CCOCC3)cc2)nc2c(N[C@H]3CCCCNC3)ncnc12 [Example 21] |
| – | < 100 | NCCNc1ncnc2c(C(N)=O)cc(-c3ccc(CN4CCOCC4)cc3)nc12 [Example 23, 4-((2-aminoethyl)amino)-6-(4-(morpholinomethyl)phenyl)pyrido[3,2-d]pyrimidine-8-carboxamide] |
| > 1000 | – | CN1CCc2cc(-c3cc(C(N)=O)c4ncnc(N[C@H]5CCCNC5)c4n3)nn2CC1=O [Example 45, (S)-6-(6-methyl-7-oxo-5,6,7,8-tetrahydro-4H-pyrazolo[1,5-d][1,4]diazepin-2-yl)-4-(piperidin-3-ylamino)pyrido[3,2-d]pyrimidine-8-carboxamide] |
| – | < 100 | NC(=O)c1cc(-c2cnn(C(F)F)c2)nc2c(N[C@H]3CCCNC3)ncnc12 [Example 77, 6-[1-(difluoromethyl)-1H-pyrazol-4-yl]-4-{[(3S)-piperidin-3-yl]amino}pyrido[3,2-d]pyrimidine-8-carboxamide] |
| – | < 100 | CC(C)n1cc(-c2cc(C(N)=O)c3ncnc(N[C@H]4CCCNC4)c3n2)cn1 [Example 78, 4-{[(3S)-piperidin-3-yl]amino}-6-[1-(propan-2-yl)-1H-pyrazol-4-yl]pyrido[3,2-d]pyrimidine-8-carboxamide] |
| – | > 1000 | NC(=O)c1cc(CC2CCOC2)nc2c(N[C@H]3CCCNC3)ncnc12 (stereo partly drawn) [Example 84, 6-[(oxolan-3-yl)methyl]-4-{[(3S)-piperidin-3-yl]amino}pyrido[3,2-d]pyrimidine-8-carboxamide] |
| – | > 1000 | NC(=O)c1cc(C=C2CCOCC2)nc2c(N[C@H]3CCCNC3)ncnc12 [Example 85, 6-[(oxan-4-ylidene)methyl]-4-{[(3S)-piperidin-3-yl]amino}pyrido[3,2-d]pyrimidine-8-carboxamide] |
| – | 100 to 1000 | NC(=O)c1cc(-c2cccnc2C(F)(F)F)nc2c(N[C@H]3CCCNC3)ncnc12 [Example 87, 4-{[(3S)-piperidin-3-yl]amino}-6-[2-(trifluoromethyl)pyridin-3-yl]pyrido[3,2-d]pyrimidine-8-carboxamide] |
| – | > 1000 | NC(=O)c1cc(CC2CCOCC2)nc2c(N[C@H]3CCCNC3)ncnc12 [Example 88, 6-[(oxan-4-yl)methyl]-4-{[(3S)-piperidin-3-yl]amino}pyrido[3,2-d]pyrimidine-8-carboxamide] |
